# Assay: in vitro
# Assay type: in vitro ADME, Staphylococcus aureus
# Settings: rat, s9
# Experimental: As a model experiment for verifying the stability of the present compound in Example 1 in the living body, the following procedures were adopted. The same test solution of the present compound as in Example 6 was prepared by mixing 0.1 ml of the dispersion of the present compound and 0.9 ml of S-9 mix, and shaking the mixture for 20 min at 37° C. As a control, a mixture of 0.1 ml of the dispersion of the present compound and 0.9 ml of the 0.2M phosphoric acid buffer was shaken for 20 min at 37° C. As the test bacteria, Staphylococcus aureus IAM 1011 was inoculated in Mueller-Hinton culture medium, and after incubating the inoculum for 18 hours at 37° C., the number of bacteria in the medium was adjusted to 10^8 /ml and the thus adjusted, cultured medium was mixed with 50 times by volume of Mueller-Hinton culture medium. After preparing an agar plate from the mixture, a penicillin cup of 8 mm in diameter was placed on the agar plate, and 0.1 ml of the test solution prepared above was put into the cup. After leaving the thus prepared agar plate for 2 hours at 4° C., the agar plate was subjected to culture for 18 hours at 37° C. to measure the diameter of a proliferation-inhibiting circle appearing on the agar plate. From a calibration curve preliminarily prepared between the concentration of the present compound and the diameter of the proliferation-inhibiting circle, the concentration of the present compound in the test solution and the control was obtained. By using the thus obtained concentration, the rate of retaining the antibacterial activity (Rate (%)) was calculated from the following formula and is shown in Table 5. [formula] As a comparative experiment, the same precedures were carried out except for using Cefotax (a commercialized cephalosporin derivative sold by CHUGAI Pharmaceuticla Co., Ltd., which is represented by the following formula), [drawing 21] instead of the present compound produced in Example 1.
compound,measurement,value
"CO/N=C(\C(=O)N[C@@H]1C(=O)N2C(C(=O)O)=C(CSc3nnc(C)s3)CS[C@H]12)c1csc(NC(=O)C(Cl)Cl)n1 [Example 1, 7β-[2-(2-dichloroacetamido-4-thiazolyl)-(Z)-2-methoxyiminoacetamido]-3-[(2-methyl-1,3,4-thiadiazol-5-yl)thiomethyl]-3-cephem-4-carboxylic acid]",remaining at 20 min,90%

# From patent US4734409A, “Cephalosporin derivative, process for producing the same and pharmaceutical composition containing the same” (Kureha Kagaku Kogyo Kabushiki Kaisha, priority 1984, dated 1988)
